IC50 data for 28 compounds are collected here from patent US20090137549A1, “Novel compounds useful for the treatment of degenerative & inflamatory diseases” (priority 2006, published 2009).

Counter-ions that a name gives are not always drawn.

The target of this experiment is PDE1A (Homo sapiens, UniProt P54750). The experiment can be described thus: PDE1A dose response, Cyclic Nucleotide Phosphodiesterase Assay Kit from Biomol (colorimetric). In kind it is biochemical. As to conditions: purified PDE1A enzyme, 100 μM cAMP. The source says:
For the dose response and further screening, we used the Cyclic Nucleotide
Phosphodiesterase Assay Kit from Biomol, a colorimetric, non-radioactive assay. The basis for the assay is the cleavage of cAMP by PDE1A. The 5′AMP is further cleaved into the nucleoside and phosphate by the enzyme 5′-nucleotidase (catnr KI-307). The phosphate released due to enzymatic cleavage is quantified using BIOMOL GREEN™ reagent (catnr AK-111) in a modified Malachite Green assay^1,2. A PDE1A inhibitor will result in a decrease of the signal.
For the enzymatic reaction a mix of 25 μL with purified PDE1A enzyme, 100 μM cAMP, 5′Nucleotidase and the compound is made in a clear 384-plate. The reaction buffer is Tris 20 mM pH 7.4, 4 μg/mL calmodulin, 3 mM MgCl2, 1.5 mM CaCl2, 0.2 mg/mL BSA and 0.001% Brij-35. After an incubation of 45 minutes at 37° C., the reaction is stopped by the addition of 50 μL BIOMOL GREEN™ reagent. After 30 minutes incubation at room temperature, the readout is performed on the Envision (absorption at 615 nm).
All compounds are tested in duplicate starting from […] followed by a 1/3 serial dilution, 8 points (20 μM-6.67 μM-2.22 μM-740 nM-247 nM-82 nM-27 nM-9 nM) in a final concentration of 1% DMSO. As the positive dose response control compound Vardenafil is used. For the calculation of z′ and PIN values 10 μM Vardenafil is used as positive control (100% inhibition) and 1% DMSO as negative control (0% inhibition).
The following compounds have been or can be prepared according to the synthetic methods described above. For the purpose of Table 7 below, PDE1A activity of each compound, which can be determined using the assay methods described herein, is expressed as follows: […]
On to `CC(C)(C)n1ncc2c(=O)[nH]c(C3CN(C(=O)Oc4ccc5c(c4)OCO5)C3)nc21` [Example 119, benzo[d][1,3]dioxol-5-yl 3-(1-tert-butyl-4-oxo-4,5-dihydro-1H-pyrazolo[3,4-d]pyrimidin-6-yl)azetidine-1-carboxylate], for which the IC50 (commonly the point on the concentration scale where inhibition reaches its midpoint) was 1 to 100 nM.
As to `COc1ccccc1C(=O)N1CCCC(c2nc3c(c(C)nn3C3CCC3)c(=O)[nH]2)C1` (stereo not shown) [Example 82, 1-cyclobutyl-6-(1-(2-methoxybenzoyl)piperidin-3-yl)-3-methyl-1H-pyrazolo[3,4-d]pyrimidin-4(5H)-one], the half-inhibitory concentration (IC50) was 501 to 1000 nM.
For `O=C(c1ccccc1OC(F)(F)F)N1CCCC(c2nc3c(cnn3C3CCCCC3)c(=O)[nH]2)C1` (stereo not shown) [Example 54, 1-cyclohexyl-6-(1-(2-(trifluoromethoxy)benzoyl)piperidin-3-yl)-1H-pyrazolo[3,4-d]pyrimidin-4(5H)-one], the half-maximal inhibitory concentration (IC50) was in the range of 101 to 500 nM.
`O=C(NC1CCCNC1)N1CC(c2nc3c(cnn3C3CCCCC3)c(=O)[nH]2)C1` (stereo not shown) [Example 182, 3-(1-Cyclohexyl-4-oxo-4,5-dihydro-1H-pyrazolo[3,4-d]pyrimidin-6-yl)-azetidine-1-carboxylic acid piperidin-3-ylamide trifluoroacetate] gave an IC50 of 501 to 1000 nM.
`O=c1[nH]c(C2CN(c3ccc(C(F)(F)F)cc3)C2)nc2c1cnn2C1CCCCC1` [Example 152, 1-cyclohexyl-6-(1-(4-(trifluoromethyl)phenyl)azetidin-3-yl)-1H-pyrazolo[3,4-d]pyrimidin-4(5H)-one]: the IC50 lay in the range of 101 to 500 nM.
For `O=C(NCCc1c[nH]cn1)N1CC(c2nc3c(cnn3C3CCCCC3)c(=O)[nH]2)C1` [Example 62, N-(2-(1H-imidazol-4-yl)ethyl)-3-(1-cyclohexyl-4-oxo-4,5-dihydro-1H-pyrazolo[3,4-d]pyrimidin-6-yl)azetidine-1-carboxamide], the IC50 was 101 to 500 nM.
The same measure for `Nc1cc(N2CC(c3nc4c(cnn4C4CCCCC4)c(=O)[nH]3)C2)ccc1[N+](=O)[O-]` [Example 146, 6-(1-(3-amino-4-nitrophenyl)azetidin-3-yl)-1-cyclohexyl-1H-pyrazolo[3,4-d]pyrimidin-4(5H)-one]: 1 to 100 nM.
With `O=c1[nH]c(C2CCCN(S(=O)(=O)c3ccc(OC(F)(F)F)cc3)C2)nc2c1cnn2C1CCCCC1` (stereo not shown) [Example 105, 1-cyclohexyl-6-(1-(4-(trifluoromethoxy)phenylsulfonyl)piperidin-3-yl)-1H-pyrazolo[3,4-d]pyrimidin-4(5H)-one], the IC50 is 1000 to 1500 nM.
`O=C(N1CCOCC1)N1CC(c2nc3c(cnn3C3CCCCC3)c(=O)[nH]2)C1` [Example 94, 1-cyclohexyl-6-(1-(morpholine-4-carbonyl)azetidin-3-yl)-1H-pyrazolo[3,4-d]pyrimidin-4(5H)-one]: the IC50 was in the range of 501 to 1000 nM.
Then `O=C(Nc1cccc(Cl)c1)N1CC(c2nc3c(cnn3C3CCCCC3)c(=O)[nH]2)C1` [Example 8, N-(3-chlorophenyl)-3-(1-cyclohexyl-4-oxo-4,5-dihydro-1H-pyrazolo[3,4-d]pyrimidin-6-yl)azetidine-1-carboxamide], with 1 to 100 nM; and `O=C(NCc1ccccc1)N1CC(c2nc3c(cnn3C3CCCCC3)c(=O)[nH]2)C1` [Example 31, N-benzyl-3-(1-cyclohexyl-4-oxo-4,5-dihydro-1H-pyrazolo[3,4-d]pyrimidin-6-yl)azetidine-1-carboxamide], with 1 to 100 nM; and `CCCCS(=O)(=O)Nc1cccc(C(=O)N2CCCC(c3nc4c(c(C)nn4C4CCCCC4)c(=O)[nH]3)C2)c1` (stereo not shown) [Example 55, N-(3-(3-(1-cyclohexyl-3-methyl-4-oxo-4,5-dihydro-1H-pyrazolo[3,4-d]pyrimidin-6-yl)piperidine-1-carbonyl)phenyl)butane-1-sulfonamide], with 101 to 500 nM.
The same measure for `COc1ccc(C(=O)N2CCCC(c3nc4c(c(C)nn4C4CCCCC4)c(=O)[nH]3)C2)cc1` (stereo not shown) [Example 77, 1-cyclohexyl-6-(1-(4-methoxybenzoyl)piperidin-3-yl)-3-methyl-1H-pyrazolo[3,4-d]pyrimidin-4(5H)-one]: 101 to 500 nM.
For the compound `Cn1c(CN2CC(c3nc4c(cnn4C(C)(C)C)c(=O)[nH]3)C2)nc2ccccc21` [Example 171, 1-tert-Butyl-6-(1-((1-methyl-1H-benzo[d]imidazol-2-yl)methyl)azetidin-3-yl)-1H-pyrazolo[3,4-d]pyrimidin-4(5H)-one], the IC50 was 501 to 1000 nM.
The same measure for `CC(=O)Nc1ccc(N2CC(c3nc4c(cnn4C4CCCCC4)c(=O)[nH]3)C2)cc1` [Example 167, N-(4-(3-(1-cyclohexyl-4-oxo-4,5-dihydro-1H-pyrazolo[3,4-d]pyrimidin-6-yl)azetidin-1-yl)phenyl)acetamide]: 101 to 500 nM; for `CC(C)(C)n1ncc2c(=O)[nH]c(C3CN(c4nc5cc(C(F)(F)F)ccc5[nH]4)C3)nc21` [Example 127, 1-tert-butyl-6-(1-(5-(trifluoromethyl)-1H-benzo[d]imidazol-2-yl)azetidin-3-yl)-1H-pyrazolo[3,4-d]pyrimidin-4(5H)-one]: 1 to 100 nM; for `Cc1nn(C2CCCCC2)c2nc(C3CN(C(=O)NCc4ccccc4)C3)[nH]c(=O)c12` [Example 24, N-benzyl-3-(1-cyclohexyl-3-methyl-4-oxo-4,5-dihydro-1H-pyrazolo[3,4-d]pyrimidin-6-yl)azetidine-1-carboxamide]: 1 to 100 nM.
The same measure for `Cc1nn(C2CCCCC2)c2nc(C3CN(C(=O)c4ccccc4)C3)[nH]c(=O)c12` [Example 72, 6-(1-benzoylazetidin-3-yl)-1-cyclohexyl-3-methyl-1H-pyrazolo[3,4-d]pyrimidin-4(5H)-one]: 101 to 500 nM.
The same measure for `CS(=O)(=O)N1CCC(NC(=O)N2CC(c3nc4c(cnn4C4CCCCC4)c(=O)[nH]3)C2)CC1` [Example 40, 3-(1-cyclohexyl-4-oxo-4,5-dihydro-1H-pyrazolo[3,4-d]pyrimidin-6-yl)-N-(1-(methylsulfonyl)piperidin-4-yl)azetidine-1-carboxamide]: 1 to 100 nM; for `Cc1nn(C2CCCCC2)c2nc(C3CN(C(=O)NCc4ccc(Cl)c(Cl)c4)C3)[nH]c(=O)c12` [Example 39, 3-(1-cyclohexyl-3-methyl-4-oxo-4,5-dihydro-1H-pyrazolo[3,4-d]pyrimidin-6-yl)-N-(3,4-dichlorobenzyl)azetidine-1-carboxamide]: 1 to 100 nM.
In turn, `CC(=O)Nc1ccc(C(=O)N2CCCC(c3nc4c(c(C)nn4C4CCCCC4)c(=O)[nH]3)C2)cc1` (stereo not shown) [Example 113, N-(4-(3-(1-cyclohexyl-3-methyl-4-oxo-4,5-dihydro-1H-pyrazolo[3,4-d]pyrimidin-6-yl)piperidine-1-carbonyl)phenyl)acetamide] displayed an IC50 of 1000 to 1500 nM.
Compound `CC(C)N1CCN(Cc2csc(N3CC(c4nc5c(cnn5C5CCCCC5)c(=O)[nH]4)C3)n2)CC1` [Example 143, 1-cyclohexyl-6-(1-(4-((4-isopropylpiperazin-1-yl)methyl)thiazol-2-yl)azetidin-3-yl)-1H-pyrazolo[3,4-d]pyrimidin-4(5H)-one] had a concentration for half-maximal inhibition (IC50) of 1000 to 1500 nM.
Compound `CN1CCN(Cc2cnc(N3CC(c4nc5c(cnn5C5CCCCC5)c(=O)[nH]4)C3)s2)CC1` [Example 137, 1-cyclohexyl-6-(1-(5-((4-methylpiperazin-1-yl)methyl)thiazol-2-yl)azetidin-3-yl)-1H-pyrazolo[3,4-d]pyrimidin-4(5H)-one] registered an IC50 of 101 to 500 nM.
The compound `CC(C)N1CCN(c2ccc(NC(=O)N3CC(c4nc5c(cnn5C5CCCCC5)c(=O)[nH]4)C3)cc2)CC1` [Example 2, 3-(1-Cyclohexyl-4-oxo-4,5-dihydro-1H-pyrazolo[3,4-d]pyrimidin-6-yl)-N-(4-(4-isopropylpiperazin-1-yl)phenyl)azetidine-1-carboxamide] returned an IC50 of 1 to 100 nM.
In the case of `Cc1nn(C2CCCCC2)c2nc(C3CCCN(S(=O)(=O)c4ccccc4Cl)C3)[nH]c(=O)c12` (stereo not shown) [Example 100, 6-(1-(2-chlorophenylsulfonyl)piperidin-3-yl)-1-cyclohexyl-3-methyl-1H-pyrazolo[3,4-d]pyrimidin-4(5H)-one], the IC50 was in the range of 1000 to 1500 nM.
The same measure for `CC(C)(C)n1ncc2c(=O)[nH]c(C3CN(C(=O)Nc4ccc(F)cc4)C3)nc21` [Example 16, 3-(1-tert-butyl-4-oxo-4,5-dihydro-1H-pyrazolo[3,4-d]pyrimidin-6-yl)-N-(4-fluorophenyl)azetidine-1-carboxamide]: 1 to 100 nM; for `CC(C)(C)n1ncc2c(=O)[nH]c(C3CN(c4ccc(CN5CCOCC5)cc4)C3)nc21` [Example 164, 1-tert-Butyl-6-[1-(4-morpholin-4-ylmethyl-phenyl)-azetidin-3-yl]-1,5-dihydro-pyrazolo[3,4-d]pyrimidin-4-one]: 1 to 100 nM; for `O=C(NC1CCCC1)N1CC(c2nc3c(cnn3C3CCCCC3)c(=O)[nH]2)C1` [Example 32, 3-(1-cyclohexyl-4-oxo-4,5-dihydro-1H-pyrazolo[3,4-d]pyrimidin-6-yl)-N-cyclopentylazetidine-1-carboxamide]: 1 to 100 nM.
